Common to all, as to assay: Cysteine liganding, probe competition
Common to all, as to type: binding

One test addresses T1, UniProt Q9BZY9 (Homo sapiens, UniProt Q9BZY9).
T1 construct: 200 μL of lysate containing 5 mg/ml proteome was treated with 2 μL of 100× compound stock; endogenous in cells
T1 sequence (Q9BZY9 1-425): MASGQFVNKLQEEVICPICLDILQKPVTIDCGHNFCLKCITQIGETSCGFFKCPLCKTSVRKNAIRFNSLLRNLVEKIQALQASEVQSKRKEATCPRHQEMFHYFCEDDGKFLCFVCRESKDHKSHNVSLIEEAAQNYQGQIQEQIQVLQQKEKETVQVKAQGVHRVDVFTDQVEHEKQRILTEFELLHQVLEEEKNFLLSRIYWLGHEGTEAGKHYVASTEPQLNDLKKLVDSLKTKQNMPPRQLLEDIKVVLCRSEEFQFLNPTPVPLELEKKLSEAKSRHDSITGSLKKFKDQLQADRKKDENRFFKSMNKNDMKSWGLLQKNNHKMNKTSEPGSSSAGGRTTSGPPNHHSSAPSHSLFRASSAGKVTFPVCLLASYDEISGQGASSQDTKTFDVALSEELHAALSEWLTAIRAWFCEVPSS
The source says:
(§1) The following 96-well sample prep protocol was used for sample preparation.

The next test concerns the target T2, UniProt O14544 (Homo sapiens, UniProt O14544).
T2 construct: 200 μL of lysate containing 5 mg/ml proteome was treated with 2 μL of 100× compound stock; endogenous in cells
T2 sequence (O14544 1-535): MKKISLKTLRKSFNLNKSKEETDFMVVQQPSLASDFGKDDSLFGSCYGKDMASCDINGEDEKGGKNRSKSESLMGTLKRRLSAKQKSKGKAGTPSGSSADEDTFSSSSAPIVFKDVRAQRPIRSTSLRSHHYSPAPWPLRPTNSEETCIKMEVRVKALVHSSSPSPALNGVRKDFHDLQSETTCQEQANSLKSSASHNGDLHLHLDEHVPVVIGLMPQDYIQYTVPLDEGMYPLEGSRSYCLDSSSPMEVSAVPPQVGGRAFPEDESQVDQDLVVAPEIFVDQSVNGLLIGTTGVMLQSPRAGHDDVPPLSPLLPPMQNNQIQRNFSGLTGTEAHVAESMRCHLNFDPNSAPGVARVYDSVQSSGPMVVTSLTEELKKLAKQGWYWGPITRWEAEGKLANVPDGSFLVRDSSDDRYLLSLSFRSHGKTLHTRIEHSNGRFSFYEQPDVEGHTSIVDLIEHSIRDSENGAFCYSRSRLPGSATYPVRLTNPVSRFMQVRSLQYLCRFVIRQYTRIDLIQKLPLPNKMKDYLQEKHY
The following applies: for inhibition at 100 µM: read-out: percent_inhibition.
Excerpt: as §1

The target in the next test is T3, UniProt Q6AZZ1 (Homo sapiens, UniProt Q6AZZ1).
T3 construct: 200 μL of lysate containing 5 mg/ml proteome was treated with 2 μL of 100× compound stock; endogenous in cells
T3 sequence (Q6AZZ1 1-485): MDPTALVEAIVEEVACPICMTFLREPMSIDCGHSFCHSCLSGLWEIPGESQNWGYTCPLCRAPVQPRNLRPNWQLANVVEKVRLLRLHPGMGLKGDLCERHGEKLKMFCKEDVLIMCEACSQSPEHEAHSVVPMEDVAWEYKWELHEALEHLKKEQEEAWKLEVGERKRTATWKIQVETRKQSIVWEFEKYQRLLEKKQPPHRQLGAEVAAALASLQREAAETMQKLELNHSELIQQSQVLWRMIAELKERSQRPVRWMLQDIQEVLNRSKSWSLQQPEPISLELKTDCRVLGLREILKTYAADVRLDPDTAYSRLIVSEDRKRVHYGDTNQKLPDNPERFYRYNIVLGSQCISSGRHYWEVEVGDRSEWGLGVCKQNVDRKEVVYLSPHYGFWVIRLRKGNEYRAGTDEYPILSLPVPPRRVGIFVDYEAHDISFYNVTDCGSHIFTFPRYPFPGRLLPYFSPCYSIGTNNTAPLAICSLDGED
Excerpt: as §1

A further test concerns the target T4, UniProt Q68DV7 (Homo sapiens, UniProt Q68DV7).
T4 construct: 200 μL of lysate containing 5 mg/ml proteome was treated with 2 μL of 100× compound stock; endogenous in cells
T4 sequence (Q68DV7 24-783): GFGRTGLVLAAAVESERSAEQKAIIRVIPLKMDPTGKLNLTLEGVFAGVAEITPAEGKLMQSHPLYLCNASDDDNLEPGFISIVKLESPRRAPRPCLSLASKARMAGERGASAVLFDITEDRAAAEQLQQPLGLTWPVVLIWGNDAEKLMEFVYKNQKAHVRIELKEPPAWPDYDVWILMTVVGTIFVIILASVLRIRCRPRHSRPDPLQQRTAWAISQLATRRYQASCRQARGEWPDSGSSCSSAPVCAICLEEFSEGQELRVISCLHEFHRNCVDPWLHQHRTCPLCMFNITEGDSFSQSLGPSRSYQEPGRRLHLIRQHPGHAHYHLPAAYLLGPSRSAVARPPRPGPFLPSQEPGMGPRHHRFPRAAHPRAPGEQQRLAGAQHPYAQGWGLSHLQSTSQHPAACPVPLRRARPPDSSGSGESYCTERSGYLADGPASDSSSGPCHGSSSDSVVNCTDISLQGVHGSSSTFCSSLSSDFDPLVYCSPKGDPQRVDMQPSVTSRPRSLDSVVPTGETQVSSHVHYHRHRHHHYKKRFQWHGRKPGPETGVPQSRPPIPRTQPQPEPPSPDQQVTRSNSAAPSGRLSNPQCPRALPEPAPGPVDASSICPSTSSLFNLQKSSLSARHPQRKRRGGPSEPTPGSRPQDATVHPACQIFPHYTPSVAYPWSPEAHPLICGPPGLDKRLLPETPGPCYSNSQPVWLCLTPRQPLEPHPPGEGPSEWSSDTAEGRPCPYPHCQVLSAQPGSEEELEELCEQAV
Excerpt: as §1

For a further test, the target named is T5, UniProt Q6ZTA4 (Homo sapiens, UniProt Q6ZTA4).
T5 construct: 200 μL of lysate containing 5 mg/ml proteome was treated with 2 μL of 100× compound stock; endogenous in cells
T5 sequence (Q6ZTA4 whole entry, change not shown): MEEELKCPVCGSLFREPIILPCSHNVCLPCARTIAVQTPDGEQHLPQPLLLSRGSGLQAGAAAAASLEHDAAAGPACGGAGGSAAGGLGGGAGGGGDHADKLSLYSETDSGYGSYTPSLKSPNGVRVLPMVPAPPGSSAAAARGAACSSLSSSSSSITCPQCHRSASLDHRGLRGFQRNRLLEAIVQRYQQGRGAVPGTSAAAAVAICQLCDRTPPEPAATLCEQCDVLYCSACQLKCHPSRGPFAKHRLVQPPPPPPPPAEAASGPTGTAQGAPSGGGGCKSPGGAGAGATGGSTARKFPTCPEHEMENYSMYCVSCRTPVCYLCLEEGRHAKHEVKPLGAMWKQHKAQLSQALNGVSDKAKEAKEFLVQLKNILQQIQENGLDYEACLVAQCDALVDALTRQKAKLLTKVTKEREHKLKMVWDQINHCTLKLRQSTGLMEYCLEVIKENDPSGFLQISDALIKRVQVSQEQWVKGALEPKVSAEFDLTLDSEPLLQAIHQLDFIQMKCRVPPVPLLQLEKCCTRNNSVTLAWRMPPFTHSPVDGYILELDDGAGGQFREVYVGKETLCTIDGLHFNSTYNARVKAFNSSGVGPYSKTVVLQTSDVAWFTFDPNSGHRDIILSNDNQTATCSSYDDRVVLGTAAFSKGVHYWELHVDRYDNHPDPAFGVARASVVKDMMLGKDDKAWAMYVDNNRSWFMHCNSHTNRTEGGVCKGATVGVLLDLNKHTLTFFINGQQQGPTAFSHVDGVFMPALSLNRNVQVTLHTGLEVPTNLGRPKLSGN
Excerpt: as §1

Where [1] appears, read: read-out: KB02_500 uM_percent_inhibition.
[2] abbreviates: 500 uM, read-out: percent_inhibition.
The mark [3] stands for this setting: read-out: KB05_500 uM_percent_inhibition.

Where two headings read alike, the source gives them in different places.

The record followed here is patent US20200239530A1, “COMPOUNDS AND METHODS OF MODULATING PROTEIN DEGRADATION” (Vividion Therapeutics, Inc., priority 2017, published 2020).

Turning to `O=C(CCl)Nc1cc(C(F)(F)F)cc(C(F)(F)F)c1` [KBO3], the “KB03_500 uM_percent_inhibition” value at UniProt Q9BZY9 (500 uM) was determined as 48%; on UniProt Q6AZZ1 (500 uM) it was 18%; on UniProt Q6ZTA4 (500 uM) it was 6%. The percent_inhibition at UniProt O14544 (100 uM) is on record as 83%; on UniProt Q68DV7 (100 uM), 7%.

Consider `COc1ccc2c(c1)CCCN2C(=O)CCl` [KB02], for which the inhibition at 500 µM at UniProt Q9BZY9 (setting [1]) was 68%; on UniProt Q6AZZ1 (setting [1]), 44%; on UniProt Q68DV7 (setting [2]) it was 41%; on UniProt Q6ZTA4 (setting [1]) it was 44%. Moreover, the inhibition at 100 µM on UniProt O14544 came to 35%; at UniProt Q68DV7 (100 uM, read-out: percent_inhibition), 13%. This compound also yielded a percent_inhibition at UniProt Q68DV7 (100 uM) of 21%.

As for `C=CC(=O)N(c1ccccc1)c1ccc(Br)cc1` [KB05], the inhibition at 500 µM on UniProt Q9BZY9 (setting [3]) was found to be 71%; at UniProt Q6AZZ1 (setting [3]) it was 36%; at UniProt Q68DV7 (setting [2]), 42%; on UniProt Q6ZTA4 (setting [3]) it was 37%. In addition, the inhibition at 100 µM at UniProt O14544 turned out to be 59%. The same compound yielded a percent_inhibition on UniProt Q68DV7 (500 uM) of 40%.
